Measurements taken from PubChem BioAssay (NCI).
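Protocol summary: plate cells (96-well), add compound at 5 concentrations, incubate 48 h, interpolate endpoints linearly. TGI denotes the concentration required for complete inhibition of growth.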

Key:
Assay in all cases: NCI tumour cell line growth inhibition, 48 h
HL-60(TB) leukemia = tested on: HL-60(TB) leukemia
HT29 colon = tested on: HT29 colon
786-0 renal = tested on: 786-0 renal
OVCAR-3 ovarian = tested on: OVCAR-3 ovarian
OVCAR-4 ovarian = tested on: OVCAR-4 ovarian
SNB-75 CNS = tested on: SNB-75 CNS
U251 CNS = tested on: U251 CNS
OVCAR-8 ovarian = tested on: OVCAR-8 ovarian
IGROV1 ovarian = tested on: IGROV1 ovarian
HOP-18 NSCLC = tested on: HOP-18 NSCLC
HCT-116 colon = tested on: HCT-116 colon
M14 melanoma = tested on: M14 melanoma
OVCAR-5 ovarian = tested on: OVCAR-5 ovarian
LXFL 529 NSCLC = tested on: LXFL 529 NSCLC
EKVX NSCLC = tested on: EKVX NSCLC
DLD-1 colon = tested on: DLD-1 colon
LOX IMVI melanoma = tested on: LOX IMVI melanoma
A549 NSCLC = tested on: A549 NSCLC
KM12 colon = tested on: KM12 colon
A498 renal = tested on: A498 renal
ACHN renal = tested on: ACHN renal
SK-MEL-5 melanoma = tested on: SK-MEL-5 melanoma
UACC-257 melanoma = tested on: UACC-257 melanoma
SF-268 CNS = tested on: SF-268 CNS
HCC-2998 colon = tested on: HCC-2998 colon
SN12C renal = tested on: SN12C renal
XF 498 CNS = tested on: XF 498 CNS
UACC-62 melanoma = tested on: UACC-62 melanoma
HCT-15 colon = tested on: HCT-15 colon
DMS 273 small cell lung = tested on: DMS 273 small cell lung
NCI-H226 lung = tested on: NCI-H226 lung
M19-MEL melanoma = tested on: M19-MEL melanoma
K-562 leukemia = tested on: K-562 leukemia
NCI-H23 lung = tested on: NCI-H23 lung
NCI-H522 lung = tested on: NCI-H522 lung
HOP-62 NSCLC = tested on: HOP-62 NSCLC
SNB-78 CNS = tested on: SNB-78 CNS
NCI-H460 lung = tested on: NCI-H460 lung
CCRF-CEM leukemia = tested on: CCRF-CEM leukemia
SW-620 colon = tested on: SW-620 colon
DMS 114 small cell lung = tested on: DMS 114 small cell lung
SNB-19 CNS = tested on: SNB-19 CNS
KM20L2 colon = tested on: KM20L2 colon
RXF 393 renal = tested on: RXF 393 renal
SF-539 CNS = tested on: SF-539 CNS
SF-295 CNS = tested on: SF-295 CNS
SK-OV-3 ovarian = tested on: SK-OV-3 ovarian
SK-MEL-2 melanoma = tested on: SK-MEL-2 melanoma
MALME-3M melanoma = tested on: MALME-3M melanoma
SK-MEL-28 melanoma = tested on: SK-MEL-28 melanoma
RXF-631 renal = tested on: RXF-631 renal
UO-31 renal = tested on: UO-31 renal
COLO 205 colon = tested on: COLO 205 colon
TK-10 renal = tested on: TK-10 renal
RPMI-8226 leukemia = tested on: RPMI-8226 leukemia
CAKI-1 renal = tested on: CAKI-1 renal
MOLT-4 leukemia = tested on: MOLT-4 leukemia
SR leukemia = tested on: SR leukemia
HOP-92 NSCLC = tested on: HOP-92 NSCLC

Measured: TGI

COC(=O)CCC(NC(=S)N/N=C(\C)c1ccco1)C(=O)OC (centres undefined)
not listed: RPMI-8226 leukemia | CAKI-1 renal | MOLT-4 leukemia | SR leukemia | HOP-92 NSCLC
> 100 µM: all other assays above

CCc1ccccc1N1C(=O)C(=O)C(c2nc3ccccc3s2)C(=O)C1=O
not listed: SNB-75 CNS | A498 renal | DMS 273 small cell lung | COLO 205 colon
> 100 µM: all other assays above
